Data as given in US12552747B2, “Amino acid derivative containing non-steroidal anti-inflammatory drug structure and preparation method and application thereof” (priority 2020, dated 2026).
Marks after values point to notes of the source that are not given here.

Tested on: Liver cancer Bel-7402 cells
Test: In vitro antitumor activity test (MTT), Bel-7402
Type: cell-based
Conditions: Homo sapiens; Liver cancer Bel-7402, MTT, 24 h
Protocol: (§1) 13 human tumor cell lines were selected and cultured in RPMI-1640 medium (Gibco company) containing 10% inactivated fetal bovine serum, 100 U/ml penicillin and 100 U/ml streptomycin, cultured at 37° C. in a 5% CO2 incubator, and passaged once every 2 days. Using the MTT method, cells in the logarithmic growth phase were digested with 0.25% trypsin, centrifuged at 1000 r/min for 5 min, 8×10^3 cells were added to each well, and seeded in a 96-well plate, and 180 μl of cell suspension was added to each well, and a blank was set at the same time. The 96-well plate inoculated with tumor cells was placed in a carbon dioxide incubator for 24 hours, and then 20 μl of the drug was added, and an equal volume of culture medium was added to the blank control well, and the drug was divided into 8 concentrations from 50 μg/L to 0.4 μg/L. Three duplicate wells were set for each drug concentration and placed in an incubator for 24 h. 10 μl of MTT solution (5 mg/ml) was added to each well, and the culture was continued for 4 h. The supernatant was aspirated and discarded, 100 μl of dimethyl sulfoxide (DMSO) solution was added to each well, placed on a micro shaker for 10 min, and the absorbance (A value) was measured at a wavelength of 492 nm in a microplate reader, and the inhibition rate of the drug on tumor cells was calculated according to the following formula.
(§2) In this test, the IC50 value of the compound on tumor cells was calculated by the Origin software according to the inhibition rate of the compound. AC-201 in the following table was the abbreviation of PL-AC-201, and so on.

SMILES | IC50
CC1(C)CC(NC(=O)C(Cc2ccc(-c3ccccc3)cc2)NC(=O)Cc2ccccc2Nc2c(Cl)cccc2Cl)CC(C)(C)N1 (centres unmarked) [PL-AC-203] | 45.4 nM

Tested on: Liver cancer HepG-2 cells
Test: In vitro antitumor activity test (MTT), HepG-2
Type: cell-based
Conditions: Homo sapiens, HepG2; Liver cancer HepG-2, MTT, 24 h
Protocol: as §1, §2

SMILES | IC50
CC1(C)CC(NC(=O)C(Cc2ccc(-c3ccccc3)cc2)NC(=O)Cc2ccccc2Nc2c(Cl)cccc2Cl)CC(C)(C)N1 (centres unmarked) [PL-AC-203] | 16 nM

Tested on: Liver cancer SK-hep1 cells
Test: In vitro antitumor activity test (MTT), SK-hep1
Type: cell-based
Conditions: Homo sapiens, 24 h
Protocol: as §1, §2

SMILES | IC50
CC1(C)CC(NC(=O)C(Cc2ccc(-c3ccccc3)cc2)NC(=O)Cc2ccccc2Nc2c(Cl)cccc2Cl)CC(C)(C)N1 (centres unmarked) [PL-AC-203] | 22.6 nM

Tested on: Lung cancer A549 cells
Test: In vitro antitumor activity test (MTT), A549
Type: cell-based
Conditions: Homo sapiens, 24 h
Protocol: as §1, §2

SMILES | IC50
CC1(C)CC(NC(=O)C(Cc2ccc(-c3ccccc3)cc2)NC(=O)Cc2ccccc2Nc2c(Cl)cccc2Cl)CC(C)(C)N1 (centres unmarked) [PL-AC-203] | 24.2 nM

Tested on: Lung cancer H460 cells
Test: In vitro antitumor activity test (MTT), H460
Type: cell-based
Conditions: Homo sapiens, NCI-H460, 24 h
Protocol: as §1, §2

SMILES | IC50
CC1(C)CC(NC(=O)C(Cc2ccc(-c3ccccc3)cc2)NC(=O)Cc2ccccc2Nc2c(Cl)cccc2Cl)CC(C)(C)N1 (centres unmarked) [PL-AC-203] | 20.8 nM

Tested on: Lung cancer H1299 cells
Test: In vitro antitumor activity test (MTT), H1299
Type: cell-based
Conditions: Homo sapiens, NCI-H1299, 24 h
Protocol: as §1, §2

SMILES | IC50
CC1(C)CC(NC(=O)C(Cc2ccc(-c3ccccc3)cc2)NC(=O)Cc2ccccc2Nc2c(Cl)cccc2Cl)CC(C)(C)N1 (centres unmarked) [PL-AC-203] | 20.5 nM

Tested on: Lung cancer H292 cells
Test: In vitro antitumor activity test (MTT), H292
Type: cell-based
Conditions: Homo sapiens, NCI-H292, 24 h
Protocol: as §1, §2

SMILES | IC50
CC1(C)CC(NC(=O)C(Cc2ccc(-c3ccccc3)cc2)NC(=O)Cc2ccccc2Nc2c(Cl)cccc2Cl)CC(C)(C)N1 (centres unmarked) [PL-AC-203] | 24.9 nM

Tested on: Breast cancer MCF-7 cells
Test: In vitro antitumor activity test (MTT), MCF-7
Type: cell-based
Conditions: Homo sapiens, MCF7; Breast cancer MCF-7, MTT, 24 h
Protocol: as §1, §2

SMILES | IC50
CC1(C)CC(NC(=O)C(Cc2ccc(-c3ccccc3)cc2)NC(=O)Cc2ccccc2Nc2c(Cl)cccc2Cl)CC(C)(C)N1 (centres unmarked) [PL-AC-203] | 23.1 nM

Tested on: Pancreatic cancer Bxpc-3 cells
Test: In vitro antitumor activity test (MTT), Bxpc-3
Type: cell-based
Conditions: Homo sapiens; Pancreatic cancer Bxpc-3, MTT, 24 h
Protocol: as §1, §2

SMILES | IC50
CC1(C)CC(NC(=O)C(Cc2ccc(-c3ccccc3)cc2)NC(=O)Cc2ccccc2Nc2c(Cl)cccc2Cl)CC(C)(C)N1 (centres unmarked) [PL-AC-203] | 49.4 nM

Tested on: Colon cancer HT29 cells
Test: In vitro antitumor activity test (MTT), HT29
Type: cell-based
Conditions: Homo sapiens, HT-29, 24 h
Protocol: as §1, §2

SMILES | IC50
CC1(C)CC(NC(=O)C(Cc2ccc(-c3ccccc3)cc2)NC(=O)Cc2ccccc2Nc2c(Cl)cccc2Cl)CC(C)(C)N1 (centres unmarked) [PL-AC-203] | 37 nM

Tested on: Cervical cancer Hela cells
Test: In vitro antitumor activity test (MTT), Hela
Type: cell-based
Conditions: Homo sapiens, 24 h
Protocol: as §1, §2

SMILES | IC50
CC1(C)CC(NC(=O)C(Cc2ccc(-c3ccccc3)cc2)NC(=O)Cc2ccccc2Nc2c(Cl)cccc2Cl)CC(C)(C)N1 (centres unmarked) [PL-AC-203] | 20 nM

Tested on: Melanoma B16 cells
Test: In vitro antitumor activity test (MTT), B16
Type: cell-based
Conditions: 24 h
Protocol: as §1, §2

SMILES | IC50
CC1(C)CC(NC(=O)C(Cc2ccc(-c3ccccc3)cc2)NC(=O)Cc2ccccc2Nc2c(Cl)cccc2Cl)CC(C)(C)N1 (centres unmarked) [PL-AC-203] | 30.1 nM

Tested on: Human osteosarcoma MG63 cells
Test: In vitro antitumor activity test (MTT), MG63
Type: cell-based
Conditions: MG-63, 24 h
Protocol: as §1, §2

SMILES | IC50
CC1(C)CC(NC(=O)C(Cc2ccc(-c3ccccc3)cc2)NC(=O)Cc2ccccc2Nc2c(Cl)cccc2Cl)CC(C)(C)N1 (centres unmarked) [PL-AC-203] | 26 nM

Tested on: human red blood cells
Test: Detection of hemolytic activity
Type: cell-based
Conditions: hemolytic concentration, in nM
Protocol: 2-3 ml of human blood was drawn using an anticoagulant tube, thoroughly mixed, and kept at 4° C. for later use. 2 ml of blood was aspirated and added with 2-3 ml of PBS, followed by gently pipetting and centrifugation for 5 min at 1000 rpm, which was repeated 3-4 times. After the last centrifugation, PBS was aspirated, PBS was added to 40 ml (20 times the volume), and the number of blood cells at this time was 2×10^8 cells/ml. The red blood cell suspension was added to the plate (U-shaped 96-well plate), and 70 μl/well was used as a negative well. Only PBS was added to blank wells, 140 μl/well. 2 ml of the red blood cell suspension was centrifuged, PBS was discarded, 2 ml of pure water was added, mixed well, and 140 μl/well was used as a positive well. The diluted polypeptide solutions of different concentrations were added to the plate, 70 μl/well. Incubated at 37° C., 87 rpm, shaken for 2h, centrifuged for 5 min at 3000 rpm. The OD value measured by microplate reader: After centrifugation, 90 μl of supernatant was drawn and transferred to a flat-bottom 96-well plate, and the OD value at 578 nm was measured by microplate reader. ODtest-OD negative >0.1 (the first concentration that met the conditions was MHC).

SMILES | MHC
CC1(C)CC(NC(=O)C(Cc2ccc(-c3ccccc3)cc2)NC(=O)Cc2ccccc2Nc2c(Cl)cccc2Cl)CC(C)(C)N1 (centres unmarked) [PL-AC-203] | 3e+06 nM

Same assay, conditions: human red blood cells, 37° C., 2h; first concentration with ODtest-OD negative >0.1

SMILES | MHC
CC1(C)CC(NC(=O)C(Cc2ccc(-c3ccccc3)cc2)NC(=O)Cc2ccccc2Nc2c(Cl)cccc2Cl)CC(C)(C)N1 (centres unmarked) [PL-AC-203] | 2000 µg/mL

Tested on: 13 human tumor cell lines
Test: Average IC50 over the tumor cell lines (MTT)
Type: cell-based
Conditions: mean IC50 for each tumor, read-out: AverageIC50
Protocol: as §1, §2
The ratio of the hemolytic concentration MHC of the compound to the mean IC50 for each tumor was referred to as the therapeutic index (TI). The safety of the compound was evaluated by the therapeutic index. The higher the therapeutic index, the greater the safety range of the compound.

SMILES | IC50
CC1(C)CC(NC(=O)C(Cc2ccc(-c3ccccc3)cc2)NC(=O)Cc2ccccc2Nc2c(Cl)cccc2Cl)CC(C)(C)N1 (centres unmarked) [PL-AC-203] | 27.7 nM

Tested on: not listed separately
Test: Acute toxicity test of single administration to ICR mice
Conditions: mouse, in vivo, intravenous, single tail vein injection, observed 7 days
Protocol: ICR mice, 18-22 g, were raised in a common-grade animal room, fed with common feed, and ingested freely. The group distance and dose were determined after exploring the Dm and Dn of the compounds of the examples. Five concentrations of the compounds of the examples were formulated at the desired dose. The corresponding doses of drugs were injected into the tail vein according to body weight, and the blank control group was injected with normal saline. Immediately after administration, the performance and death of each animal were observed and recorded, and the possible toxic reaction or death of animals within 7 days after a single administration was observed and recorded.

SMILES | LD50 at 7 days
CC1(C)CC(NC(=O)C(Cc2ccc(-c3ccccc3)cc2)NC(=O)Cc2ccccc2Nc2c(Cl)cccc2Cl)CC(C)(C)N1 (centres unmarked) [PL-AC-203] | 39.8 mg/kg

Tested on: Bel-7402 liver tumors
Test: Transplanted tumor in nude mice, intraperitoneal, Bel-7402
Type: in vivo, BALB/c nude mice
Conditions: Bel-7402, 5 mg/kg i.p. once every 3 days, 8 administrations
Protocol: (§3) BALB/c nude mice were used to inoculate Bel-7402, HepG-2 and SK-hep1 liver tumors according to the transplanted tumor research method under aseptic operation, and the cell density was not less than 5×10^6/ml, 0.2 ml was inoculated subcutaneously in the axilla of the right hind limb of each mouse. After the cells were inoculated, the cells were administered intraperitoneally (concentration: 5 mg/kg), once every 3 days, for a total of 8 administrations. After the 2nd day of drug withdrawal, all tumor-bearing mice were sacrificed, and their body weight, tumor weight and tumor inhibition were weighed.

SMILES | Tumor inhibition rate | Tumor weight
CC1(C)CC(NC(=O)C(Cc2ccc(-c3ccccc3)cc2)NC(=O)Cc2ccccc2Nc2c(Cl)cccc2Cl)CC(C)(C)N1 (centres unmarked) [PL-AC-203] | 58.7** % | 327.4 ± 10.4 mg

Same assay, conditions: Bel-7402 tumor-bearing BALB/c mice, 5 mg/kg i.p. once every 3 days, 8 administrations

SMILES | Body Weight After administration
CC1(C)CC(NC(=O)C(Cc2ccc(-c3ccccc3)cc2)NC(=O)Cc2ccccc2Nc2c(Cl)cccc2Cl)CC(C)(C)N1 (centres unmarked) [PL-AC-203] | 24.1 ± 0.9 g

Tested on: HepG-2 liver tumors
Test: Transplanted tumor in nude mice, intraperitoneal, HepG-2
Type: in vivo, BALB/c nude mice
Conditions: HepG-2, 5 mg/kg i.p. once every 3 days, 8 administrations
Protocol: as §3

SMILES | Tumor inhibition rate | Tumor weight
CC1(C)CC(NC(=O)C(Cc2ccc(-c3ccccc3)cc2)NC(=O)Cc2ccccc2Nc2c(Cl)cccc2Cl)CC(C)(C)N1 (centres unmarked) [PL-AC-203] | ^ΔΔ72.4** % | 455.8 ± 9.9 mg

Same assay, conditions: HepG-2 tumor-bearing BALB/c mice, 5 mg/kg i.p. once every 3 days, 8 administrations

SMILES | Body Weight After administration
CC1(C)CC(NC(=O)C(Cc2ccc(-c3ccccc3)cc2)NC(=O)Cc2ccccc2Nc2c(Cl)cccc2Cl)CC(C)(C)N1 (centres unmarked) [PL-AC-203] | 22.7 ± 1.7 g

Tested on: SK-hep1 liver tumors
Test: Transplanted tumor in nude mice, intraperitoneal, SK-hep1
Type: in vivo, BALB/c nude mice
Conditions: SK-hep1, 5 mg/kg i.p. once every 3 days, 8 administrations
Protocol: as §3

SMILES | Tumor inhibition rate | Tumor weight
CC1(C)CC(NC(=O)C(Cc2ccc(-c3ccccc3)cc2)NC(=O)Cc2ccccc2Nc2c(Cl)cccc2Cl)CC(C)(C)N1 (centres unmarked) [PL-AC-203] | ^ΔΔ68.3** % | 355.2 ± 1.2 mg

Same assay, conditions: SK-hep1 tumor-bearing BALB/c mice, 5 mg/kg i.p. once every 3 days, 8 administrations

SMILES | Body Weight After administration
CC1(C)CC(NC(=O)C(Cc2ccc(-c3ccccc3)cc2)NC(=O)Cc2ccccc2Nc2c(Cl)cccc2Cl)CC(C)(C)N1 (centres unmarked) [PL-AC-203] | 24.7 ± 0.5 g
